Results published in patent US10023615B2, “Efficient transport into white blood cells” (priority 2008, dated 2018).
Square brackets hold non-standard residues; d marks the D form. Ends that are not written are not given here.

How the values were obtained:
liver and lymph nodes = test: FITC-XG-102 and FITC-D-TAT localization in liver and lymph nodes; type: in vivo, Sprague Dawley rat; conditions: 1 mg/kg i.v., 6 h post-injection
Excerpt: FIG. 22A and FIG. 22B: 22A: FITC-XG-102 (SEQ ID NO: 233) localization in the liver. Three cellular fields of FITC-XG-102-labelled cells isolated from liver. From left to right, FITC-labelled XG-102, corresponding DAPI nuclear stain and merge of both images. […] Typicall Kupfer cell shape and nucleus can be differentiated from hepatocytes by their shape. Small and triangle in Kupfer cells in contrast to big exagonal, well organized hepatocytes. Obj 63; bar, 20 μm. 22B: FITC-D-TAT (SEQ ID NO: 4) localization in the liver. Two cellular fields of FITC-D-TAT-labelled cells isolated from liver. From left to right, FITC-labelled XG-102, corresponding DAPI nuclear stain and merge of both images. […] Typicall Kupfer cell shape and nucleus can be differentiated from hepatocytes by their shape. Small and triangle in Kupfer cells in contrast to big exagonal, well organized hepatocytes. Obj 63; bar, 20 μm.
(§1) FIG. 23A and FIG. 23B: 23A: FITC-XG-102 (SEQ ID NO: 233) localization in lymph nodes. Cellular field of FITC-XG-102-labelled cells isolated from lymph nodes. Upper panels from left to right: the composite image is organized with one cellular field stained with FITC-XG-102 (left), Dapi for nuclear stain (middle) and the corresponding merged image (right). In the lower panels, a zoomed cell cluster of each image is illustrated. […] The absence of FITC staining in the lymphoid follicles allows distinguishing from the medullary corde and cortex area. Medullary zone seems to have incorporated the FITC-XG-102, composed in majority by macrophages. Obj 10; bar, 50 μm.
as §1, with “23B:” for “FIG. 23A and FIG. 23B:”, “FITC-D-TAT” for “23A: FITC-XG-102”, “4)” for “233)”, “FITC-D-TAT-labelled” for “FITC-XG-102-labelled”, “FITC-D-TAT” for “FITC-XG-102”, “FITC-D-TAT,” for “FITC-XG-102,”
Female Sprague Dawley rat was injected i.v. in the tail with either 1 mg/kg of FITC-XG102 (SEQ ID NO:233) or 1 mg/kg FITC-D-TAT (SEQ ID NO:4). Rats were sacrified 6 h post-injection using a lethal dose of sodium pentobarbital (150 mg/kg i.p.). For histological analysis and during narcosis, rats were perfused through the heart with 4% paraformaldehyde (PFA) in PBS. Organs (liver and lymph nodes) were cryoprotected in sucrose (30% in PBS), frozen using liquid isopentane and kept for further cryostat sectioning. Sections of 14 μm were incubated for 5 min in PBS before Hoechst staining for 2 min at RT (1 μg/ml). […]

[1] = test system: Kupffer cells (CD-14 positive cells) of the liver; test: Liver cell localization of FITC-D-TAT after i.v. injection; type: in vivo, mouse; conditions: 0.1 mg/kg i.v.
Method: FIG. 5: (A): Primary cultured macrophages were incubated with XG-102 (SEQ ID NO: 233) and extensively washed. […] (B): Mice were injected i.v. with 0.1 mg/kg FITC-D-TAT (SEQ ID NO: 4 plus FITC) and were sacrificed 24 hours later with PAF perfusion through the heart. Slices were obtained after cryoprotection using cryostat.
Mice were injected i.v. with 0.1 mg/kg of FITC-D-TAT (SEQ ID NO: 4) and were sacrificed by perfusion 24 h later. Liver was removed, cryoprotected and cut into slices with a cryostat. D-TAT was directly visualized via FITC fluorescence and cell nuclei were labeled with Hoechst dye. Hepatocytes are big cells (89% of liver cells) that display a large nucleus, whereas Kupffer cells (resident macrophages of the liver) represent approximately 10% of the cells and are small and thin, elongated cells with small nucleus.

[2] = test system: HL-60 cell line (Leukemia); test: Time dependant internalization of FITC-labeled TAT derived transporter constructs into HL-60 cells; type: cell-based; conditions: 10 μM; 30 min, 1, 6 or 24 hours
Method: FIG. 3: depicts the results of the time dependant internalization (uptake) of FITC-labeled TAT derived transporter constructs into cells of the HL-60 cell line. […] HL-60 cells were incubated 30 min, 1, 6 or 24 hours with […] of the TAT-derivative transporters. The cells were then washed twice with an acidic buffer (0.2 M Glycin, 0.15 M NaCl, pH 3.0) and twice with PBS. Cells were broken by the addition of RIPA lysis buffer. The relative amount of internalized peptide was then determined by reading the fluorescence intensity (Fusion Alpha plate reader; PerkinElmer) of each extract followed by background substraction and protein content normalization. […]

U937 lymphoma cells = test: Uptake (internalization) of FITC-labeled TAT derived transporter constructs in U937 cells, fluorescence plate reader; type: cell-based; conditions: 10 μM, U937, Lymphoma, 24 h
Method: Cells were plated into poly-DL-lysine coated dishes at a concentration of 1×10^6 cells/ml. Plates were then incubated for 24 h at 37° C., 5% CO2, and 100% relative humidity prior to the addition of a known concentration of peptide. After peptide addition, the cells were incubated 30 min, 1, 6 or 24 h at 37° C., 5% CO2, and 100% relative humidity. Cells were then washed twice with an acidic buffer (Glycin 0.2 M, NaCl 0.15 M, pH 3.0) in order to remove the cell-surface adsorbed peptide (see Kameyama et al., (2007), Biopolymers, 88, 98-107). […] The cell wash using an acidic buffer was thus employed to remove the cell-surface adsorbed peptides. […] Cells were broken by the addition of the RIPA lysis buffer. The relative amount of internalized peptide was then determined by fluorescence after background substraction and protein content normalization. • The steps are thus: 1. […] Analysis of peptide internalization with a fluorescence plate reader • f) Cell Culture and Peptide Treatment • (1) The 6 well culture plates are coated with 3 ml of Poly-D-Lys (Sigma P9011; 25 μg/ml in PBS), the 24 well plates with 600 μl and the 96 well plates with 125 μl and incubated for 4 h at 37° C., CO2 5% and 100% relative humidity. • (2) After 4 hours the dishes were washed twice with 3.5 ml PBS, 700 μl or 150 μl PBS for the 6, 24 or 96 well plates, respectively. • (3) The cells were plated into the dishes in 2.4 ml medium (RPMI) at plating densities of 1′000′000 cells/ml for suspension cells. After inoculation, the plates were incubated at 37° C., 5% CO2 and 100% relative humidity for 24 hours prior to the addition of the peptide. Adherent cells should be at a density of 90-95% the day of treatment and were plated in DMEM :
• (4) The cells were treated with the desired concentration of FITC labeled peptide (stock solution at a concentration of 10 mM in H2O). • (5) Following peptide addition, the cells were incubated 0 to 24 hours (e.g. 30 min, 1, 6 or 24 hours) at 37° C., CO2 5% and 100% relative humidity. • Acidic Wash and Cellular Extracts: • (6) The extracts were cooled on ice. • Suspension cells (or cells, which don attach well to the dish): • Transfer the cells in ? […] To recover the maximum of cells, wash the dish with 1 ml of PBS. • Harvest the cells 2 min at 2400 rpm max. • Suspend the cells in 1 ml cold PBS. • Transfer the cells into a coated “Eppendorf tube” (coated with 1 ml of poly D-Lys for 4 hours and washed twice with 1 ml PBS). • Wash three times with 1 ml of cold acidic wash buffer and centrifuge 2 min at 2400 rpm max. Beware of the spreading of the cells in the “eppendorf”. • Wash twice with 1 ml cold PBS to neutralize. • Add 50 μl of lysis RIPA Buffer. • Incubate 30 min-1 h on ice with agitation. • Adherent Cells: • Wash three times with 3 ml, 1 ml or 200 μl (for 6, 24 or 96 well plates, respectively) of cold acidic wash buffer. Beware of the cells who detach from the dish. • Wash twice with 1 ml cold PBS (for 6, 24 or 96 well plates, respectively) to neutralize. • Add 50 μl of lysis RIPA buffer. • Incubate 30 min-1 h on ice with agitation. • Scrap the cells with a cold scrapper. The 24 and 96 well plates were directly centrifuged at 4000 rpm at 4° for 15 min to remove the cellular debris. Then the supernatants (100 or 50 ml respectively for the 24 or 96 well plates) were directly transferred in a dark 96 well plated.

[3] = test system: dissociated cortical primary neurons; test: Confocal microscopy of FITC-labeled TAT derivative transporters in cortical primary neurons; type: cell-based, rat; conditions: 500 nM, 24 hours
Method: 8.4 Internalization Experiments and Analysis • The time dependant internalization (uptake) of FITC-labeled TAT derived transporter constructs into cells of the HL-60 cell line was carried out with materials and methods as described above. • Briefly, HL-60 cells were incubated 30 min, 1, 6 or 24 hours with 10 μM of the TAT-derivative transporters. The cells were then washed twice with an acidic buffer (0.2 M Glycin, 0.15 M NaCl, pH 3.0) and twice with PBS. Cells were broken by the addition of RIPA lysis buffer. The relative amount of internalized peptide was then determined by reading the fluorescence intensity (Fusion Alpha plate reader; PerkinElmer) of each extract followed by background substraction and protein content normalization. […] The dissociated cortical primary neurons from P2 Sprague Dawley rats were cultured 12 days in neurobasal medium before exposure 24 hours to 500 nM of the FITC-labeled • TAT derivative transporters. The cells were washed five times with PBS on ice and then mounted in fluorsave mounting medium without prior fixation. Acquisitions were performed on LSM510 metaconfocal microscope (Zeiss). Images were processed with LSM510 software and mounted using Adobe photoshop. Visualization by confocal microscopy of labeling with 500 nM FITC-transporters (A: green). Nuclei were stained by Hoechst (B: blue).

Lymphocytes T (CD3) = test: Flow cytometry of FITC-transporter content in primary human white blood cells: lymphocytes T; type: cell-based; conditions: 1 uM, 30 min
Excerpt: (§2) Primary human white blood cells (WBC) were obtained from whole blood after red blood cell lysis. […] Cells containing D-TAT-FITC and r3-L-TAT-FITC were finally analysed by flow cytometry to measure their respective transporter content.

Neutrophils (CD15) = test: Flow cytometry of FITC-transporter content in primary human white blood cells: neutrophils; type: cell-based; conditions: 1 uM, 30 min
Excerpt: as §2

Monocytes (CD14) = test: Flow cytometry of FITC-transporter content in primary human white blood cells: monocytes; type: cell-based; conditions: 1 uM, 30 min
Excerpt: as §2

Lymphocytes B (CD19) = test: Flow cytometry of FITC-transporter content in primary human white blood cells: lymphocytes B; type: cell-based; conditions: 1 uM, 30 min
Excerpt: as §2

U937 cells = test: Intracellular concentration of transporter constructs subsequent to uptake into U937 cells; type: cell-based; conditions: U937 cells, 10 μM construct
Method: 9. Determination of Intracellular Concentration of Specific Transporter Constructs Subsequent to Uptake (Internalization) of these Peptides into U937 Cells • According to a further experiment, the concentration of specific transporter constructs subsequent to uptake (internalization) of these peptides into U937 cells were determined.

Row | Molecule | localization in lymph nodes (liver and lymph nodes) | localization in the liver (liver and lymph nodes) | cell type of accumulation in liver ([1]; 24 h) | colocalization with CD-14 positive cells in liver ([1]; 24 hours) | time dependant internalization (uptake) [2] | uptake (internalization) (U937 lymphoma cells) | internalization seen by confocal microscopy [3] | binding to cell population (Lymphocytes T (CD3)) | binding to cell population (Neutrophils (CD15)) | binding to cell population (Monocytes (CD14)) | binding to cell population (Lymphocytes B (CD19)) | intracellular concentration of transporter construct subsequent to uptake (U937 cells; 2 h) | intracellular concentration of transporter construct subsequent to uptake (U937 cells; 4 h) | intracellular concentration of transporter construct subsequent to uptake (U937 cells; 6 h) | intracellular concentration of transporter construct subsequent to uptake (U937 cells; 24 h)
1 | N=C(N)NCCC[C@@H](NC(=O)[C@@H](CCCCN)NC(=O)[C@@H](CCCCN)NC(=O)[C@@H](CCCNC(=N)N)NC(=O)[C@@H](CCCNC(=N)N)NC(=O)[C@@H](CCC(N)=O)NC(=O)[C@@H](CCCNC(=N)N)NC(=O)[C@@H](CCCNC(=N)N)NC(=O)[C@@H](CCCNC(=N)N)NC(=O)CCNC(=S)Nc1ccc2c(c1)C(=O)OC21c2ccc(O)cc2Oc2cc(O)ccc21)C(N)=O [FITC-D-TAT, FITC-βA-rrrqrrkkr] | decorates subcapsular sinus macrophages and constitutive migrating alveolar macrophages | efficiently decorates Kupfer cells in contrast to hepatocytes which only show a background staining level | accumulates predominantly in Kupffer cells | colocalization between FITC-D-TAT labelled-cells and CD-14 positive cells |  |  |  |  |  |  |  |  |  |  | 
2 | rRRQrRKKr [r3-L-TATi] |  |  |  |  | less efficient but still suitable | most efficient | internalized into the cytoplasm of the non stressed neurons |  |  |  |  |  |  |  | 
3 | rKKRrQRRr ([dR]KKR[dR]QRR[dR]) [r3-L-TAT] |  |  |  |  | as effective as the D-TAT transporter construct | most efficient | internalized into the cytoplasm of the non stressed neurons | binds to monocytes, neutrophils and lymphocyte T cells | binds to monocytes, neutrophils and lymphocyte T cells | binds to monocytes, neutrophils and lymphocyte T cells | less efficiently to lymphocyte B cells | 2.34 | 3.16 | 3.56 | 11.2
4 | RKKRRQRRR (Description of sequence trafficking sequence L-TAT (s1a) (see Table 1)) [reference compound] |  |  |  |  | doesn't accumulate over a period of 24 hours | significantly lower uptake |  |  |  |  |  | 1.20 | 1.38 | 1.07 | 0.5
